For one series, the system named is NCI-N87 tumor. In words: Nude mouse xenograft, stomach cancer line NCI-N87, tumor growth (T/C). The note with it: Compound 1 5 mg/kg orally, cisplatin 7 mg/kg intravenously on first day, alone or combined; test end date. Type of series: in vivo, nude mice.
Another series has as its system NCI-H441 tumor. The series is described as follows: Nude mouse xenograft, NSCLC NCI-H441, tumor growth (T/C). Type of series: in vivo, nude mice. The following applies: Compound 1 5 mg/kg orally, paclitaxel 30 mg/kg intravenously on first day, alone or combined; test end date.
Another series relates to NCI-H2170 tumor. In words: Nude mouse xenograft, NSCLC NCI-H2170, tumor growth (T/C). In kind it is in vivo, nude mice. The following applies: Compound 1 5 mg/kg orally, docetaxel 15 mg/kg intravenously on first day, alone or combined; RTV ratio to control on test end date. As for the experimental part:
NCI-H2170 (ATCC #CRL-5928) as a human non-small cell lung cancer (NSCLC) cell line was obtained from American Type Culture Collection (ATCC; Manassas, Va., USA). In RPMI-1640 (containing 4.5 g/L of glucose, 10 mM of HEPES, and 1 mM of sodium pyruvate) (Wako Pure Chemical Industries, Ltd.) medium supplemented with 10% fetal bovine serum (FBS), cell lines were cultured. The cells cryopreserved in liquid nitrogen were quickly thawed at 37° C., transferred to a tissue culture flask containing a medium, and allowed to grow in a 5% CO2 incubator at 37° C. The NCI-H2170 cell lines were sub-cultured once to twice a week at a dilution ratio of 1:5 to 1:10. […]
Subsequently, the cell was allowed to grow for one to two weeks after transplantation until the tumor volume (TV) reached 100 to 300 mm^3. Digimatic Caliper was used in measurement of the tumor diameter, the major axis and the minor axis of the tumor were measured, and TV was calculated by the following formula. […]
Animals having an extremely small or large tumor volume were excluded and the remaining animals were allocated to each group by a stratified randomization allocation method using TV as an index. A relative tumor volume (RTV) was calculated from TV as an endpoint. […] RTV and T/C (%) were calculated by the following formula. […]

Series [1] in a line: Storage stability of Compound 1 suspension in 0.5% hypromellose aqueous solution. In kind it is physicochemical. The following applies: stored in refrigerator. As for the experimental part:
In order to administer Compound 1, a 0.5% hypromellose aqueous solution was prepared. Hypromellose was weighed in a beaker, and distilled water (Otsuka Pharmaceutical Factory, Inc.) was added thereto in an amount of about 80% of the preparation amount. The mixture was completely dissolved by being stirred overnight using a stirrer at a low-temperature chamber, the resultant solution was transferred to a measuring cylinder, and distilled water was added to dilute to the preparation amount. Compound 1 was weighed in a necessary amount, pulverized with an agate mortar, suspended with a 0.5% hypromellose aqueous solution to have a predetermined concentration, and then subjected to ultrasonic treatment, thereby obtaining a homogeneous suspension. 10 mL of this suspension was administered orally per kg of body weight. Incidentally, the suspension was stored in a refrigerator at times other than administration.

The test system of another series is SBC-1 tumor. In words: Nude mouse xenograft, small cell lung cancer line SBC-1, tumor growth (T/C). In kind it is in vivo, nude mice. The note with it: Compound 1 28 mg/kg orally on Days 1, 3, 5, 8, 10, 12, amrubicin […] intravenously on first day, alone or combined; test end date.

Among the data in US10849886B2, “Combination therapy using azabicyclo compound for cancer” (TAIHO PHARMACEUTICAL CO., LTD., priority 2013, dated 2020) are T/C value and stability of suspension values, retold here.

As to `N.N.[Cl][Pt][Cl]` [cisplatin, reference compound], in the series on NCI-N87 tumor, the T/C value is given as 65%.
Turning to `CC(=O)O[C@H]1C(=O)[C@@]2(C)[C@H]([C@H](OC(=O)c3ccccc3)[C@]3(O)C[C@H](OC(=O)[C@H](O)[C@@H](NC(=O)c4ccccc4)c4ccccc4)C(C)=C1C3(C)C)[C@]1(OC(C)=O)CO[C@@H]1C[C@@H]2O` [paclitaxel, reference compound], in the series on NCI-H441 tumor, the T/C value is on record as 41%.
Turning to `CC(=O)O[C@@]12CO[C@@H]1C[C@H](O)[C@@]1(C)C(=O)[C@H](O)C3=C(C)[C@@H](OC(=O)[C@H](O)[C@@H](NC(=O)OC(C)(C)C)c4ccccc4)C[C@@](O)([C@@H](OC(=O)c4ccccc4)[C@H]21)C3(C)C` [docetaxel, reference compound], in the series on NCI-H2170 tumor, the T/C value is reported as 86%.
On to `CCc1cc(C(N)=O)ccc1-n1nc(C(C)C)c2c(-n3cnc(-c4cnn(C)c4)c3)ccnc21` [Compound 1, 3-ethyl-4-{3-isopropyl-4-(4-(1-methyl-1H-pyrazol-4-yl)-1H-imidazol-1-yl)-1H-pyrazolo[3,4-b]pyridin-1-yl}benzamide], for which the T/C value with NCI-N87 tumor worked out at 51%; in the series with NCI-H441 tumor, 63%; with NCI-H2170 tumor, 72%; in the series with SBC-1 tumor, 49%. The stability of suspension entry in series [1] was “refrigerator-stable for two weeks”.
With `CC(=O)[C@]1(N)Cc2c(O)c3c(c(O)c2[C@@H](O[C@H]2C[C@H](O)[C@H](O)CO2)C1)C(=O)c1ccccc1C3=O` [amrubicin, reference compound], in the series on SBC-1 tumor, the T/C value is reported as 40%.
